What was measured:
MK-801-treated mice = assay: Novel object recognition (NOR) test, MK-801-induced deficits; format: in vivo; conditions: for Reversal of MK-801-induced disruptions in NOR test by combined administration: 7 days; for Effect of combined administration on MK-801-induced memory deficits in the NOR test: subeffective doses
Protocol: Drugs were administered on two different schedules: (1) acute administration of compounds 45 min (WAY100635—5-HT1A antagonist) or 30 min (VU0357017, VU152100, VU0238429, and F15599) before MK-801 (also administered once 30 min before the test in Y-maze or T1 in NOR test); and (2) prolonged administration (once per day for 7 consecutive days) of the compounds and MK-801 with the last administration 24 h before the test (NOR test) or at the day of the test (Y-maze). […] Schedules of administration are presented graphically in Figure 2. The subeffective doses of the compounds for acute administration in the NOR test were chosen based on our previous research (see: [22, 23]) while dose-dependent studies of the activity of the compounds in reversing disruptions in the Y-maze or after prolonged administration along with MK-801 were performed within this study. Different vehicles were used throughout the study: (1) 0.9% NaCl and (2) 10% Tween 80. Vehicles were administered to all animals (e.g., control mice and MK-801-treated mice) on the same schedule as drugs were administered to the appropriate drug-treated groups of mice. Neither solvent exerted effects on animal behavior.
Male Albino Swiss mice (Charles River, Sulzfeld, Germany) weighing 20–25 g at the beginning of the experiments were used in the studies. The animals were housed in a room with a 12:12 h light-dark cycle at a temperature of 22 ± 1 °C with food and water available ad libitum. The experimental groups consisted of 8–10 animals. All drugs were administered intraperitoneally (i.p.) at a volume of 10 mL/kg. The behavioral experiments were performed by an observer who was blinded to the treatment. The procedures were conducted in accordance with the European Communities Council Directive of 22 September 2010 (2010/63/EU) and Polish legislation acts concerning animal experimentation and were approved by the II Local Ethics Committee by the Maj Institute of Pharmacology, Polish Academy of Sciences in Krakow (15/2020, 240/2020).
In acute experiments, the tested compounds (alone or in combination) were administered 30 min before MK-801 (0.3 mg/kg), which was administered 30 min before the test or training trial (T1) in the NOR test. In chronic experiments, the tested compounds (alone or in combination) and MK-801 were administered for seven days. Behavioral tests were performed on the eighth day.
The NOR test was performed as described previously. Briefly, the habituation, training and test trial were carried out in a dark room in a black, plastic rectangular arena illuminated with a 355 lux bulb. During the habituation trial, the animals were allowed to explore the arena in the absence of objects (10 min/day for 2 days). The next day, the training (T1) and test (T2) trials were performed. Throughout T1, mice were allowed to freely explore two identical objects (5 min), one of which was subsequently replaced by a novel object in T2 (1 h later, 5 min of exploration). Time spent exploring (i.e., sniffing or touching) the familiar (Tfamiliar) or novel object (Tnovel) was measured by a trained observer, and then the recognition index was calculated for each mouse [(Tnovel − Tfamiliar)/(Tfamiliar + Tnovel)] × 100.

[1] = Pharmacokinetic analysis of drug-drug interactions (plasma, FC concentration, FC penetration); format: in vivo, mice; conditions: mouse, in vivo
Protocol: The experiment was performed using the methods described by Bridges et al. and in our previous studies.
The pharmacokinetic analysis was performed in the blood and prefrontal cortex. […] Plasma and FC samples were stored at −80 °C until analysis.
The investigated compounds were administered alone at the top dose (F15599—0.1 mg/kg, VU0357017—5 mg/kg, VU0152100—1 mg/kg, and VU0238429—5 mg/kg) and in combinations of muscarinic ligands at subeffective doses with F15599 at subeffective dose (F15599 + VU0357017 0.05 and 0.15 mg/kg, F15599 + VU0152100 0.05 and 0.05 mg/kg, F15599 + VU0238429 0.05 and 1 mg/kg). The FC and blood were collected on the eighth day, 30 min after administration. All mice were parallelly treated with MK-801 (0.3 mg/kg) for seven consecutive days.
On the day of analysis, frozen whole mouse brain tissues were weighed and homogenized in 1:2 (w/v) volumes of ice-cold acetonitrile containing 0.1% FA and the internal standard mix. Samples were homogenized using a Metal Bead Lysing Matrix, vortexed for 1 min, shaken for 20 min at 4 °C on Thermomixer C, and centrifuged at 14,000× g rpm for 20 min at 4 °C. Finally, 50 µL of supernatant were diluted with 0.1% FA in water (1:1, v/v) and analyzed using HPLC/MS/MS.
The sample extraction of plasma (20 μL) was performed after spiking with the internal standard mix using the protein precipitation method and three volumes of ice-cold acetonitrile containing 0.1% formic acid. The extract was vortexed, incubated on ice for 20 min and centrifuged at 14,000× g rpm for 20 min at 4 °C. The supernatant was diluted with 0.1% FA in water (1:1, v/v) and analyzed by means of HPLC/MS/MS using a QTRAP 4500 (AB Sciex) mass spectrometer in positive ion mode in Multiple Reaction Monitoring (MRM screening) coupled with UHPLC (NEXERA XR, Shimadzu). Chromatographic separation was achieved on a Synergi 4 µm Fusion-RP 80 A 50 × 2 mm (Phenomenex) column at a flow rate of 0.2 mL/min. The gradient program was as follows: 20% B (0.3 min), 20–100% B (1.7 min), 100% B (3 min), 100–20% B (0.1 min), 20% B (2 min), solvent A (95:5:0.1% formic acid in water:methanol) and solvent B (methanol containing 0.1% formic acid). The column temperature was set to 40 °C. Analyst software was used to control the instrument and collect data. The ion transfer tube temperature was 300 °C. The spray voltage, collision energy, declastering potential, and gas parameters were optimized to achieve the maximal response using the test compounds. Selected reaction monitoring was carried out using the transition parameters. Calibration curves were constructed, and a linear response was obtained in the range of 0.25–500 ng/mL (VU357017, VU0152100, and F15599) and 1.25–2500 ng/mL (VU0238429) by spiking known amounts of each compound in blank brain homogenates and plasma. For VU0357017 and F15599 IS VU0152100 was used as internal standard. Sample concentration of internal standard was 100 ng/mL for IS VU0238429 and 50 ng/mL for IS VU0152100.
Brain penetration was calculated as FC/plasma ratio × 100%.

## Cc1cnc(CNCC2(F)CCN(C(=O)c3ccc(F)c(Cl)c3)CC2)nc1 [F15599]
MK-801-treated mice; 7 days with MK-801, 0.025 mg/kg i.p.
  Reversal of MK-801-induced deficits in the NOR test (recognition index): ineffective
MK-801-treated mice; 7 days with MK-801, 0.1 mg/kg i.p.
  Reversal of MK-801-induced deficits in the NOR test (recognition index): reversed
MK-801-treated mice; F15599 0.05 mg/kg with VU0152100 0.05 mg/kg (subeffective doses)
  Reversal of MK-801-induced disruptions in NOR test by combined administration: reversed
MK-801-treated mice; F15599 0.05 mg/kg with VU0238429 1 mg/kg (subeffective doses)
  Reversal of MK-801-induced disruptions in NOR test by combined administration: reversed
MK-801-treated mice; F15599 0.05 mg/kg with VU0357017 0.15 mg/kg (subeffective doses)
  Reversal of MK-801-induced disruptions in NOR test by combined administration: reversed
MK-801-treated mice; acute, 0.05 mg/kg i.p., 30 min before MK-801
  Reversal of MK-801-induced deficits in the NOR test (recognition index): ineffective
MK-801-treated mice; acute, 0.1 mg/kg i.p., 30 min before MK-801 (0.3 mg/kg)
  Reversal of MK-801-induced deficits in the NOR test (recognition index): reversed
MK-801-treated mice; acute, 0.5 mg/kg i.p., 30 min before MK-801
  Reversal of MK-801-induced deficits in the NOR test (recognition index): reversed
MK-801-treated mice; acute, F15599 with VU0152100
  Effect of combined administration on MK-801-induced memory deficits in the NOR test: no effect
MK-801-treated mice; acute, F15599 with VU0238429
  Effect of combined administration on MK-801-induced memory deficits in the NOR test: no effect
MK-801-treated mice; acute, F15599 with VU0357017
  Effect of combined administration on MK-801-induced memory deficits in the NOR test: no effect
[1]; Albino Swiss, 0.1 mg/kg, 30 min
  PFC: 21.57 ± 1.26 ng/mL
[1]; Albino Swiss, 0.1 mg/kg, PFC
  concentration at 30 min: 18.3 ± 0.84 ng/mL
[1]; Albino Swiss, 30 min
  Decrease of FC penetration after prolonged administration compared to acute: ca. 50%
  Decrease of FC penetration of F15599 when administered simultaneously: ~ 50%
[1]
  Effect of chronic administration of subeffective doses (combinations) on brain penetration: increased

From publication PMC8395335, “Serotonergic–Muscarinic Interaction within the Prefrontal Cortex as a Novel Target to Reverse Schizophrenia-Related Cognitive Symptoms” (International Journal of Molecular Sciences, 2021)
